From patent US10023544B2, “Heterocyclic compound” (Takeda Pharmaceutical Company Limited, priority 2014, dated 2018)
Structures can show the parent of a compound that is named as a salt.

The compounds below were run against T1, Human recombinant enteropeptidase (Homo sapiens, UniProt P98073) (assay: Human enteropeptidase inhibitory activity). Details: 3.3 uM test compound; fluorescence intensity 2 hours after start of reaction; 3.3 µM.
T1 construct: purchased ITSI-Biosciences, LLC #REN-260
Format: biochemical
Protocol: Human recombinant enteropeptidase (#REN-260, ITSI-Biosciences, LLC) was diluted with an assay buffer (50 mM Tricine (pH 8.0), 0.01 (w/v) % Tween 20, 10 mM CaCl2) to prepare a 24 mU/mL enzyme solution. Subsequently, 5FAM-Abu-Gly-Asp-Asp-Asp-Lys-Ile-Val-Gly-Gly-Lys(CPQ2)-Lys-Lys-NH2 (purity: 97.2%, CPC Scientific, Inc.) produced according to a synthesis method known per se was diluted with an assay buffer to prepare a 2.1 uM (“u” represents “micro”) substrate solution. Each test compound was dissolved in DMSO to prepare a 1 mM solution, which was then diluted 100-fold with an assay buffer to prepare a compound solution. The compound solution (5 uL/well) and the substrate solution (5 uL/well) were added to a 384-well black plate (#784076, Greiner Bio-One) and mixed. Then, the enzyme solution (5 uL/well) was added to the plate and mixed to start reaction. The fluorescence intensity was measured at an excitation wavelength of 485 nm and a fluorescence wavelength of 535 nm using a fluorescence plate reader EnVision (PerkinElmer Inc.). Also, the same reaction as above was performed except that the test compound was not added (test compound non-supplemented group). In addition, the same reaction as above was performed except that neither the test compound nor the enzyme was added (control group). The inhibition rate was calculated from the fluorescence intensity 2 hours after the start of the reaction according to the following equation: Inhibition rate (%)=(1−(Fluorescence intensity of the test compound supplemented group−Fluorescence intensity of the control group)/(Fluorescence intensity of the test compound non-supplemented group−Fluorescence intensity of the control group))×100

T1 sequence (P98073 whole entry): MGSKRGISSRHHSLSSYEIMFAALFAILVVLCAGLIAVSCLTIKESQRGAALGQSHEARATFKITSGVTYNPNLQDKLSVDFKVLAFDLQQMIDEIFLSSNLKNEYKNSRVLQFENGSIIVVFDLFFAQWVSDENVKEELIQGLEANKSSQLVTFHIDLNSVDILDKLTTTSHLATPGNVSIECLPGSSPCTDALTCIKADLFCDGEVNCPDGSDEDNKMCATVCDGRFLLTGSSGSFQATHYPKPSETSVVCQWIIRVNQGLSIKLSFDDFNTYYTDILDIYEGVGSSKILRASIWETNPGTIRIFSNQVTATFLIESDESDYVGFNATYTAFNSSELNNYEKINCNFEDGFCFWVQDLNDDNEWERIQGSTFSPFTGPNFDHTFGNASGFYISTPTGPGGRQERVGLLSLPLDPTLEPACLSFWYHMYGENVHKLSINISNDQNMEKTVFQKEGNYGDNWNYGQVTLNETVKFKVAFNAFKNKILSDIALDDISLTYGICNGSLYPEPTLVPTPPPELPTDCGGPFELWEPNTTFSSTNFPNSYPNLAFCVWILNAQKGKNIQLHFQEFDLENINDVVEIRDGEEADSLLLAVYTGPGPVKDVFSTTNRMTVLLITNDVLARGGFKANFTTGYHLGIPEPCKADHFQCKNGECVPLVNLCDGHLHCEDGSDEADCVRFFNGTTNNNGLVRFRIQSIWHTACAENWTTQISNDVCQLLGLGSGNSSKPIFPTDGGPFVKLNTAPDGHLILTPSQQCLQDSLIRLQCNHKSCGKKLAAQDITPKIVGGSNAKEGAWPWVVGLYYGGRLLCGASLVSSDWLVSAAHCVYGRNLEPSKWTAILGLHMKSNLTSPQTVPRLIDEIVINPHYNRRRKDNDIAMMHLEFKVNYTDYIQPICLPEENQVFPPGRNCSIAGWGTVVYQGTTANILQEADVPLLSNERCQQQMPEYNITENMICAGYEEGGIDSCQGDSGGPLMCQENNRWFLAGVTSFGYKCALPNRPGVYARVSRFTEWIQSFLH

SMILES | Inhibition rate at 3.3 uM (%)
CC(C)(C)C1CCC(c2cc(OC(=O)c3ccc(NC(=N)N)cc3)cc(C3=NOC(CC(=O)O)(C(=O)O)C3)c2)CC1 (stereo not drawn) [Example 13, 3-(3-(4-tert-butylcyclohexyl)-5-((4-carbamimidamidobenzoyl)oxy)phenyl)-5-(carboxymethyl)-4,5-dihydro-1,2-oxazole-5-carboxylic acid (cis or trans form)] | 100

Same assay, conditions: 3.3 uM test compound; fluorescence intensity 2 hours after start of reaction; read-out: Inhibition rate at 3.3 uM (%)

SMILES | inhibition at 3.3 µM [%]
N=C(N)Nc1ccc(C(=O)Oc2ccc(C3=NOC(CC(=O)O)(C(=O)O)C3)cc2)cc1 (stereo not shown) [Example 2, 3-(4-((4-carba-mimidamidobenzoyl)oxy)phenyl)-5-(carboxymethyl)-4,5-dihydro-1,2-oxazole-5-carboxylic acid] | 101
N=C(N)Nc1ccc(C(=O)Oc2ccc(CCC(=O)O)c(C3=NOC(CC(=O)O)(CC(=O)O)C3)c2)cc1 [Example 24, 3-(2-(5,5-bis(carboxymethyl)-4,5-dihydro-1,2-oxazol-3-yl)-4-((4-carbamimidamidobenzoyl)oxy)phenyl)propanoic acid] | 100
N=C(N)Nc1ccc(C(=O)Oc2ccc(CCC(=O)NCC(=O)O)c(C3=NOC(CC(=O)O)(CC(=O)O)C3)c2)cc1 [Example 30, N-(3-(2-(5,5-bis(carboxymethyl)-4,5-dihydro-1,2-oxazol-3-yl)-4-((4-carbamimidamidobenzoyl)oxy)phenyl)propanoyl)glycine] | 100
N=C(N)Nc1ccc(C(=O)Oc2cc(CCC(=O)N[C@@H](CC(=O)O)C(=O)O)cc(C3=NOC(CC(=O)O)(C(=O)O)C3)c2)cc1 (stereo partly drawn) [Example 19, N-(3-(3-((4-carbamimidamidobenzoyl)oxy)-5-(5-carboxy-5-(carboxymethyl)-4,5-dihydro-1,2-oxazol-3-yl)phenyl)propanoyl)-L-aspartic acid] | 101
N=C(N)Nc1ccc(C(=O)Oc2ccc(CCC(=O)N3CCS(=O)(=O)CC3)c(C3=NOC(CC(=O)O)(CC(=O)O)C3)c2)cc1 [Example 25, 2,2′-(3-(5-((4-Carbamimidamidobenzoyl)oxy)-2-(3-(1,1-dioxidothiomorpholin-4-yl)-3-oxopropyl)phenyl)-4,5-dihydro-1,2-oxazole-5,5-diyl)diacetic acid] | 100
N=C(N)Nc1ccc(C(=O)Oc2cc(CCC(=O)O)cc(C3=NOC(CC(=O)O)(C(=O)O)C3)c2)cc1 (stereo not shown) [Example 14, 3-(3-((4-Carbamimidamidobenzoyl)oxy)-5-(2-carboxyethyl)phenyl)-5-(carboxymethyl)-4,5-dihydro-1,2-oxazole-5-carboxylic acid trifluoroacetate] | 100
N=C(N)Nc1ccc(C(=O)Oc2ccc(-c3ccccc3)c(C3=NOC(CC(=O)O)(C(=O)O)C3)c2)cc1 (stereo not shown) [Example 9, 3-(4-((4-carbamimidamidobenzoyl)oxy)biphenyl-2-yl)-5-(carboxymethyl)-4,5-dihydro-1,2-oxazole-5-carboxylic acid] | 101
N=C(N)Nc1ccc(C(=O)Oc2ccc(CCC(=O)N3CCC(C(=O)O)CC3)c(C3=NOC(CC(=O)O)(CC(=O)O)C3)c2)cc1 [Example 33, 1-(3-(2-(5,5-Bis(carboxymethyl)-4,5-dihydro-1,2-oxazol-3-yl)-4-((4-carbamimidamidobenzoyl)oxy)phenyl)propanoyl)piperidine-4-carboxylic acid] | 100
N=C(N)Nc1ccc(C(=O)Oc2ccc(C3CCN(C(=O)CCC(=O)O)CC3)c(C3=NOC(CC(=O)O)(CC(=O)O)C3)c2)cc1 [Example 7, 4-(4-(2-(5,5-Bis(carboxymethyl)-4,5-dihydro-1,2-oxazol-3-yl)-4-((4-carbamimidamidobenzoyl)oxy)phenyl)piperidin-1-yl)-4-oxobutanoic acid trifluoroacetate] | 101
Cc1cc(OC(=O)c2ccc(NC(=N)N)cc2)cc(C2=NOC(CC(=O)O)(C(=O)O)C2)c1 (stereo not shown) [Example 11, 3-(3-((4-Carbamimidamidobenzoyl)oxy)-5-methylphenyl)-5-(carboxymethyl)-4,5-dihydro-1,2-oxazole-5-carboxylic acid trifluoroacetate] | 100
Cc1ccc(C2=NOC(CC(=O)O)(C(=O)O)C2)cc1OC(=O)c1ccc(NC(=N)N)cc1 (stereo not shown) [Example 17, 3-(3-((4-carbamimidamidobenzoyl)oxy)-4-methylphenyl)-5-(carboxymethyl)-4,5-dihydro-1,2-oxazole-5-carboxylic acid] | 87
N=C(N)Nc1ccc(C(=O)Oc2ccc(CCC(=O)N[C@@H](CC(=O)O)C(=O)O)c(C3=NOC(CC(=O)O)(CC(=O)O)C3)c2)cc1 [Example 20, N-(3-(2-(5,5-bis(carboxymethyl)-4,5-dihydro-1,2-oxazol-3-yl)-4-((4-carbamimidamidobenzoyl)oxy)phenyl)propanoyl)-L-aspartic acid] | 100
N=C(N)Nc1ccc(C(=O)Oc2ccc(CCC(=O)O)c(C3=NOC(CC(=O)O)(C(=O)O)C3)c2)cc1 (stereo not shown) [Example 15, 3-(5-((4-carbamimidamidobenzoyl)oxy)-2-(2-carboxyethyl)phenyl)-5-(carboxymethyl)-4,5-dihydro-1,2-oxazole-5-carboxylic acid] | 101
N=C(N)Nc1ccc(C(=O)Oc2cccc(C3=NOC(CCC(=O)O)(CCC(=O)O)C3)c2)cc1 [Example 4, 3,3′-(3-(3-((4-carba-mimidamidobenzoyl)oxy)phenyl)-4,5-dihydro-1,2-oxazole-5,5-diyl)dipropanoic acid] | 101
N=C(N)Nc1ccc(C(=O)Oc2ccc(CCC(=O)N[C@@H](CCC(N)=O)C(=O)O)c(C3=NOC(CC(=O)O)(CC(=O)O)C3)c2)cc1 [Example 29, N^2-(3-(2-(5,5-bis(carboxymethyl)-4,5-dihydro-1,2-oxazol-3-yl)-4-((4-carbamimidamidobenzoyl)oxy)phenyl)propanoyl)-L-glutamine] | 100
N=C(N)Nc1ccc(C(=O)Oc2ccc(CCC(=O)N3CCOCC3)c(C3=NOC(CC(=O)O)(CC(=O)O)C3)c2)cc1 [Example 26, 2,2′-(3-(5-((4-carbamimidamidobenzoyl)oxy)-2-(3-(morpholin-4-yl)-3-oxopropyl)phenyl)-4,5-dihydro-1,2-oxazole-5,5-diyl) diacetic acid] | 100
N=C(N)Nc1ccc(C(=O)Oc2ccc(C3CCN(CCC(=O)O)CC3)c(C3=NOC(CC(=O)O)(CC(=O)O)C3)c2)cc1 [Example 22, 3-(4-(2-(5,5-Bis(carboxymethyl)-4,5-dihydro-1,2-oxazol-3-yl)-4-((4-carbamimidamidobenzoyl)oxy)phenyl)piperidin-1-yl)propanoic acid ditrifluoroacetate] | 101
CN(CC(=O)O)C(=O)CCc1ccc(OC(=O)c2ccc(NC(=N)N)cc2)cc1C1=NOC(CC(=O)O)(CC(=O)O)C1 [Example 31, N-(3-(2-(5,5-bis(carboxymethyl)-4,5-dihydro-1,2-oxazol-3-yl)-4-((4-carbamimidamidobenzoyl)oxy)phenyl)propanoyl)-N-methylglycine] | 100
Cc1c(OC(=O)c2ccc(NC(=N)N)cc2)cccc1C1=NOC(CC(=O)O)(C(=O)O)C1 (stereo not shown) [Example 16, 3-(3-((4-carbamimidamidobenzoyl)oxy)-2-methylphenyl)-5-(carboxymethyl)-4,5-dihydro-1,2-oxazole-5-carboxylic acid] | 100
N=C(N)Nc1ccc(C(=O)Oc2ccc(CCC(=O)NCCC(=O)O)c(C3=NOC(CC(=O)O)(CC(=O)O)C3)c2)cc1 [Example 32, N-(3-(2-(5,5-bis(carboxymethyl)-4,5-dihydro-1,2-oxazol-3-yl)-4-((4-carbamimidamidobenzoyl)oxy)phenyl)propanoyl)-beta-alanine] | 100
N=C(N)Nc1ccc(C(=O)Oc2ccc(CCC(=O)NCCS(=O)(=O)O)c(C3=NOC(CC(=O)O)(CC(=O)O)C3)c2)cc1 [Example 34, 2,2′-(3-(5-((4-Carbamimidamidobenzoyl)oxy)-2-(3-oxo-3-((2-sulfoethyl)amino)propyl)phenyl)-4,5-dihydro-1,2-oxazole-5,5-diyl)diacetic acid] | 101
Cc1ccc(OC(=O)c2ccc(NC(=N)N)cc2)cc1C1=NOC(CC(=O)O)(C(=O)O)C1 (stereo not shown) [Example 3, 3-(5-((4-Carbamimidamidobenzoyl)oxy)-2-methylphenyl)-5-(carboxymethyl)-4,5-dihydro-1,2-oxazole-5-carboxylic acid trifluoroacetate] | 101
N=C(N)Nc1ccc(C(=O)Oc2cccc(C3=NOC(CC(=O)O)(CC(=O)O)C3)c2)cc1 [Example 6, 2,2′-(3-(3-((4-Carbamimidamidobenzoyl)oxy)phenyl)-4,5-dihydro-1,2-oxazole-5,5-diyl)diacetic acid] | 100
N=C(N)Nc1ccc(C(=O)Oc2cc(CCC(=O)N[C@@H](CC(=O)O)C(=O)O)cc(C3=NOC(CC(=O)O)(CC(=O)O)C3)c2)cc1 [Example 23, N-(3-(3-(5,5-bis(carboxymethyl)-4,5-dihydro-1,2-oxazol-3-yl)-5-((4-carbamimidamidobenzoyl)oxy)phenyl)propanoyl)-L-aspartic acid] | 100
